Test results from paper PMC9404513 (ACS Omega, 2022).

Legend:
MAO-A = target: T1, MAO-A (Homo sapiens, UniProt P21397); assay: Monoamine oxidase A inhibition; assay type: biochemical
T1 sequence (P21397 1-527): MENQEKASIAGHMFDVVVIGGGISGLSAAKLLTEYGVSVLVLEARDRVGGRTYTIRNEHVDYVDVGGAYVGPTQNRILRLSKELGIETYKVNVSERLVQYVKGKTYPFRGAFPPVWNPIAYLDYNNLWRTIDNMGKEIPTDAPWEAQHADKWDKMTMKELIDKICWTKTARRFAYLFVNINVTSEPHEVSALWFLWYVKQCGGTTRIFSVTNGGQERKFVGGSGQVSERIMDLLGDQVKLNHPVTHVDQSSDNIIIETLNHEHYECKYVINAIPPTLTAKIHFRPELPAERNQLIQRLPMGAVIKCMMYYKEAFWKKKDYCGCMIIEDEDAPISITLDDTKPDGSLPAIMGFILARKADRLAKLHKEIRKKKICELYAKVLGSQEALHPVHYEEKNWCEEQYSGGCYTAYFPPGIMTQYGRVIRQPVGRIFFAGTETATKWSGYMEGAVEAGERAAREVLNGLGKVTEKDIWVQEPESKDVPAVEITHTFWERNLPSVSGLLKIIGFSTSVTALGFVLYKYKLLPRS

MAO-B = target: T2, MAO-B (Homo sapiens, UniProt P27338); assay: Monoamine oxidase B inhibition; assay type: biochemical
T2 sequence (P27338 1-520): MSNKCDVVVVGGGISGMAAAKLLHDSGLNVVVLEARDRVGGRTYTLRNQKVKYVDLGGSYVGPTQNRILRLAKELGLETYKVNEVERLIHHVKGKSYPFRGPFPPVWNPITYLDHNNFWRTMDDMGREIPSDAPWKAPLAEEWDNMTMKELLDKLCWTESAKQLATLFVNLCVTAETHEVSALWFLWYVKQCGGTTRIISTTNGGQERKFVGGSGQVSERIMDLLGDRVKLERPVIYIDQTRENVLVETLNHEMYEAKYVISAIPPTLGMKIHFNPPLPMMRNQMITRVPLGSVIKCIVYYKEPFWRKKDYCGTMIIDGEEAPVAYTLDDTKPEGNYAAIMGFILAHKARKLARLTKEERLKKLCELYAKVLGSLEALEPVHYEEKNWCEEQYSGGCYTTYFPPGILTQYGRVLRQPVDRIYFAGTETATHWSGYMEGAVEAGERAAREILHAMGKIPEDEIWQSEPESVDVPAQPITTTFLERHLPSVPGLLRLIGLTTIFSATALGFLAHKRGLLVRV

[1] = Solubility in organic solvents; assay type: physicochemical; settings: solvents in which the compound is soluble

CCOC(=O)C1=C(Nc2ccc(F)cc2)CC(c2ccc(C(F)(F)F)cc2)N(c2ccc(F)cc2)C1c1ccc(C(F)(F)F)cc1 (stereo not drawn) [FTEAA, Ethyl 4-(4-fluorophenylamino)-2,6-bis(4-(trifluoromethyl)phenyl)-1-(4-fluoro-phenyl)-1,2,5,6-tetrahydropyridine-3-carboxylate]
IC50 (MAO-A): 520 ± 30 nM
IC50 (MAO-B): 1020 ± 110 nM
solubility [1]: acetone, chloroform, dichloromethane, ethyl acetate and ethanol
